# Test results taken from US12162857B2, “Antiviral compounds” (priority 2022, dated 2024).
# Legend:
# HRSV = conditions: prophylactic use, high risk infants; cited from earlier work
# HMPV A2 TN/94-49 = assay: HMPV antiviral assay: LLC-MK2 cells, ATP-Lite readout; type: cell-based; conditions: MOI 0.005, 7 days incubation
# Method in brief: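 LLC-MK2 cells (5,000/well) were infected in suspension with HMPV A2 TN/94-49 at MOI 0.005 in serum-free OptiMEM with 2 μg/mL final TPCK-trypsin, then incubated for 7 days at 37 °C. Compounds were tested in duplicate from 2 μM in 10-point 2.5-fold dilutions. ATP-Lite luminescence, normalised to virus-only and cells-only controls as % cell health, gave EC50 by four-parameter fit.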
# [1] = tested on: Human RSV-A (“Long” strain); assay: RSV-A assay: CPE in Hep-2 cells, ATPlite readout; type: cell-based; conditions: MOI 0.1, 5-day incubation
# Description: Hep-2 cells, (originally derived from tumors grown in irradiated-cortisonised weanling rats that had been injected with epidermoid carcinoma tissue from a person's larynx, but later found to be indistinguishable from HeLa cells by PCR DNA analysis), were used for the culturing of genotype A, “Long” strain RSV. Flasks were inoculated with RSV and viral stocks were collected once cytopathic effect (CPE) was greater than 90%. Viral stocks in 25% sucrose media were snap frozen using liquid nitrogen to increase viral stability. Viral stock titers were quantified by tissue culture infectious dose 50% (TCID50) using 8,000 cells per well and 3-fold viral dilutions across a 96-well plate, cultured for 4 days. Viral stock titers were also quantified by a plaque forming unit assay, as described elsewhere.
# Following extensive parameter testing, the final assay is run as follows: Hep-2 cells are seeded into the inner 60 wells of a 96-well plate at 8,000 cells per well in a volume of 50 μL using Growth Media (DMEM without phenol red, 1% L-Glut, 1% Penn/Strep, 1% nonessential amino acids, 10% heat-inactivated FBS). 2-fold serial dilutions of control and test compounds are added to the wells in duplicate in a total volume of 25 μL. Viral stock is then added to the wells at a multiplicity of infection (MOI) of 0.1 in a volume of 25 μL, bringing the total volume of each well to 100 μL. The MOI is calculated using the PFU/mL, or TCID50 if unavailable. Each 96-well plate has a control column of 6 wells with cells and virus but no compound (negative control, max CPE), a column with cells but no compound or virus (positive control, minimum CPE), and a column with no cells or virus or compound (background plate/reagent control). The control wells with cells but no virus are given an additional 25 μL of growth media containing an equal quantity of sucrose as those wells receiving the viral stock in order to keep consistent in media and volume conditions. The outer wells of the plate are filled with 125 μL of moat media (DMEM, 100 Penn/Strep) to act as a thermal and evaporative moat around the test wells. Following a 5-day incubation period, the plates are read using ATPlite (50 uL added per well), which quantifies the amount of ATP (a measure of cell health) present in each well. Assay plates are read using the Envision luminometer. […] EC50 ranges are as follows: A<0.01 μM; B 0.01-0.05 μM; C>0.05 μM.
# [2] = human respiratory syncytial virus, 120 h
Compound,effective in reducing hospitalizations (HRSV),"EC50 (HMPV A2 TN/94-49; LLC-MK2, 168 h)","EC50 [1, 2]",EC50 (HMPV A2 TN/94-49),EC50 [1]
Palivizumab,60%,,,,
COc1cc(C(=O)NC[C@@](O)(c2ccccc2)c2cc(C(N)=O)c(F)c(-c3cc(Cl)c(F)cc3F)n2)cc2cn(C3CC3)nc12 [Example 189],,> 1000 nM,10 to 50 nM,,
COc1cc(C(=O)NC[C@](O)(c2cc(C3(C#N)CC3)c(F)c(-c3cc(Cl)c(F)cc3F)n2)C2CC2)cc2cn(C(F)F)nc12 [Example 10],,> 1000 nM,10 to 50 nM,,
"COc1cc(C(=O)NC[C@@](O)(c2ccccc2)c2cc(C(C)(C)O)c(Cl)c(-c3cc(Cl)c(F)cc3F)n2)cc2cn(C3CC3)nc12 (single isomer, unassigned) [Example 132]",,< 1000 nM,< 10 nM,,
"Cc1nc2c(OC3CC3)cc(C(=O)NC[C@](O)(c3cc(C(O)(C(F)(F)F)C(F)(F)F)c(F)c(-c4ccc(F)cc4)n3)C3CC3)cc2cc1Cl (single isomer, unassigned) [Example 48]",,> 1000 nM,> 50 nM,,
COc1cc(C(=O)NC[C@@](O)(c2ccccc2)c2cc(C(C)(C)O)c(F)c(-c3ccc(F)c(Cl)c3Cl)n2)cc2cn(C3CC3)nc12 [Example 67],,< 1000 nM,< 10 nM,,
COc1cc(C(=O)NC[C@@](O)(c2ccccc2)c2nc(-c3cc(Cl)c(F)cc3F)c(F)c(C(C)(C)O)c2F)cc2cn(C3CC3)nc12 [Example 127],,< 1000 nM,< 10 nM,,
COc1cc(C(=O)NC[C@](O)(c2cc(C(C)(C)F)c(F)c(-c3cc(Cl)c(F)cc3F)n2)C2CC2)cc2cn(C3CC3)nc12 [Example 177],,> 1000 nM,10 to 50 nM,,
"NC(=O)C1(c2cc([C@@](O)(CNC(=O)c3cc(OC4CC4)c4nn(C(F)F)cc4c3)C3CC3)nc(-c3cc(Cl)c(F)cc3F)c2F)CC1 (single isomer, unassigned) [Example 18]",,> 1000 nM,10 to 50 nM,,
CC(C)(O)c1cc([C@@](O)(CNC(=O)c2ccc3nn(C4CC4)cc3c2)C2CC2)nc(-c2ccc(F)cc2)c1F [Example 3],,> 1000 nM,10 to 50 nM,,
COc1cc(C(=O)NC[C@@](O)(c2ccccc2)c2cc(C(C)(C)O)c(F)c(-c3cc(Cl)c(F)cc3F)n2)cc2cn(C(F)F)nc12 [Example 62],,< 1000 nM,< 10 nM,,
Cc1nc2c(OC(F)F)cc(C(=O)NC[C@@](O)(c3ccccc3)c3cc(C(C)(C)O)c(F)c(-c4cc(Cl)c(F)cc4F)n3)cc2cc1Br [Example 66],,< 1000 nM,> 50 nM,,
[2H]C([2H])([2H])C(O)(c1cc([C@@](O)(CNC(=O)c2cc(OC)c3nn(C(F)F)cc3c2)c2ccccc2)nc(-c2cc(Cl)c(F)cc2F)c1F)C([2H])([2H])[2H] [Example 185],,< 1000 nM,< 10 nM,,
CC(C)(O)c1cc([C@@](O)(CNC(=O)c2cc(Cl)c3nn(C4CC4)cc3c2)C2CC2)nc(-c2ccc(F)cc2)c1F [Example 6],,< 1000 nM,< 10 nM,,
"COc1cc(C(=O)NC[C@](O)(c2cc(C(O)(C(F)(F)F)C(F)(F)F)c(F)c(-c3ccc(F)cc3)n2)C2CC2)cc2cn(C3CC3)nc12 (single isomer, unassigned) [Example 47]",,> 1000 nM,10 to 50 nM,,
"COc1cc(C(=O)NC[C@](O)(c2cc(C3(C(N)=O)CC3)c(F)c(-c3ccc(F)c(Cl)c3F)n2)C2CC2)cc2cn(C3(F)CC3)nc12 (single isomer, unassigned) [Example 22]",,> 1000 nM,< 10 nM,,
COc1cc(C(=O)NC[C@@](O)(c2ccccc2)c2cc(C(C)(C)O)c(F)c(-c3cc(Cl)c(F)cc3F)n2)cc2cc(C3CC3)nn12 [Example 64],,< 1000 nM,< 10 nM,,
COc1cc(C(=O)NC[C@@](O)(c2ccccc2)c2cc(C(C)(C)O)c(Cl)c(-c3cc(Cl)c(F)cc3F)n2)cc2cn(C3CC3)nc12 [Example 144],,,,< 1000 nM,< 10 nM
COc1cc(C(=O)NC[C@@](O)(c2ccccc2)c2cc(C(C)(C)O)c(F)c(-c3cccc(Cl)c3Cl)n2)cc2cn(C3CC3)nc12 [Example 79],,< 1000 nM,< 10 nM,,
COc1cc(C(=O)NC[C@@](O)(c2ccccc2)c2cc(C(C)(C)O)c(F)c(-c3cc(F)c(F)cc3F)n2)cc2cn(C3CC3)nc12 [Example 86],,> 1000 nM,< 10 nM,,
COc1c(C(C)(C)O)cc([C@@](O)(CNC(=O)c2cc(OC)c3nn(C4CC4)cc3c2)C2CC2)nc1-c1cc(Cl)c(F)cc1F [Example 164],,> 1000 nM,> 50 nM,,
[2H]C([2H])([2H])C(O)(c1cc([C@@](O)(CNC(=O)c2cc(OC)n3nc(C4CC4)cc3c2)c2ccccc2)nc(-c2cc(Cl)c(F)cc2F)c1F)C([2H])([2H])[2H] [Example 184],,< 1000 nM,< 10 nM,,
COc1cc(C(=O)NC[C@](O)(c2cc(C(C)(C)O)c(F)c(-c3cc(Cl)c(F)cc3F)n2)C2CC2)cc2cn(C3CC3)nc12 [Example 52],,< 1000 nM,< 10 nM,,
COc1cc(C(=O)NC[C@@](O)(c2ccccc2)c2cc(C(=O)NC3(C)CC3)c(F)c(-c3cc(Cl)c(F)cc3F)n2)cc2cn(C3CC3)nc12 [Example 195],,> 1000 nM,> 50 nM,,
"CC(C)(O)c1cc([C@@](O)(CNC(=O)c2cc(F)c3nn(C(F)F)cc3c2)C2CC2)nc(-c2ccc(F)cc2)c1F (single isomer, unassigned) [Example 7]",,> 1000 nM,> 50 nM,,
COc1cc(C(=O)NC[C@@](O)(c2ccccc2)c2cc(C(C)(C)O)c(F)c(-c3ccc(F)c(Cl)c3F)n2)cc2cn(C3CC3)nc12 [Example 123],,< 1000 nM,< 10 nM,,
"COc1cc(C(=O)NC[C@](O)(c2cc(C3(C(N)=O)CC3)cc(-c3cc(Cl)c(F)cc3F)n2)C2CC2)cc2cn(C3CC3)nc12 (single isomer, unassigned) [Example 24]",,> 1000 nM,10 to 50 nM,,
COc1cc(C(=O)NC[C@](O)(c2cc(C(C)(C)O)c(F)c(-c3ccc(F)cc3)n2)C2CC2)cc2cn(C(F)F)nc12 [Example 2],,< 1000 nM,< 10 nM,,
Cc1nc2c(OC(F)F)cc(C(=O)NC[C@](O)(c3cc(C(C)(C)O)c(F)c(-c4cc(Cl)c(F)cc4F)n3)C3CC3)cc2cc1Br [Example 59],,> 1000 nM,< 10 nM,,
COc1cc(C(=O)NC[C@](O)(c2cc(C3(O)CNC3)c(F)c(-c3cc(Cl)c(F)cc3F)n2)C2CC2)cc2cn(C3CC3)nc12 [Example 170],,> 1000 nM,> 50 nM,,
